This passage reports IC50 results from US7928140B2, “Benzothiazole PI3 kinase modulators for cancer treatment” (Amgen Inc., priority 2007, dated 2011).

The target in experiment [1] is T1, PI3K β (Homo sapiens, UniProt P42338).
T1 construct: Full length p110 subunits of PI3K α, β and δ, N-terminally labeled with polyHis tag; polyHis (N); made in house; host or cells: Sf9 insect cells (baculovirus)
Put plainly: In vitro PI3 kinase enzyme assay (beta), ATP loss, bioluminescence.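 Further: purified p110β/p85 heterodimer with PtdIns(4,5)P2 as acceptor, incubated at room temperature, leftover ATP read by luminescence, inhibition scaled to compound-free wells with and without enzyme.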 The format is biochemical. The settings on record: read-out: PI3Kβ ATP loss IC50.

For experiment [2], the target named is T2, PI3K α (Homo sapiens, UniProt P42336).
T2 construct: Full length p110 subunits of PI3K α, β and δ, N-terminally labeled with polyHis tag; polyHis (N); made in house; host or cells: Sf9 insect cells (baculovirus)
T2 sequence (P42336 whole entry, species assumed): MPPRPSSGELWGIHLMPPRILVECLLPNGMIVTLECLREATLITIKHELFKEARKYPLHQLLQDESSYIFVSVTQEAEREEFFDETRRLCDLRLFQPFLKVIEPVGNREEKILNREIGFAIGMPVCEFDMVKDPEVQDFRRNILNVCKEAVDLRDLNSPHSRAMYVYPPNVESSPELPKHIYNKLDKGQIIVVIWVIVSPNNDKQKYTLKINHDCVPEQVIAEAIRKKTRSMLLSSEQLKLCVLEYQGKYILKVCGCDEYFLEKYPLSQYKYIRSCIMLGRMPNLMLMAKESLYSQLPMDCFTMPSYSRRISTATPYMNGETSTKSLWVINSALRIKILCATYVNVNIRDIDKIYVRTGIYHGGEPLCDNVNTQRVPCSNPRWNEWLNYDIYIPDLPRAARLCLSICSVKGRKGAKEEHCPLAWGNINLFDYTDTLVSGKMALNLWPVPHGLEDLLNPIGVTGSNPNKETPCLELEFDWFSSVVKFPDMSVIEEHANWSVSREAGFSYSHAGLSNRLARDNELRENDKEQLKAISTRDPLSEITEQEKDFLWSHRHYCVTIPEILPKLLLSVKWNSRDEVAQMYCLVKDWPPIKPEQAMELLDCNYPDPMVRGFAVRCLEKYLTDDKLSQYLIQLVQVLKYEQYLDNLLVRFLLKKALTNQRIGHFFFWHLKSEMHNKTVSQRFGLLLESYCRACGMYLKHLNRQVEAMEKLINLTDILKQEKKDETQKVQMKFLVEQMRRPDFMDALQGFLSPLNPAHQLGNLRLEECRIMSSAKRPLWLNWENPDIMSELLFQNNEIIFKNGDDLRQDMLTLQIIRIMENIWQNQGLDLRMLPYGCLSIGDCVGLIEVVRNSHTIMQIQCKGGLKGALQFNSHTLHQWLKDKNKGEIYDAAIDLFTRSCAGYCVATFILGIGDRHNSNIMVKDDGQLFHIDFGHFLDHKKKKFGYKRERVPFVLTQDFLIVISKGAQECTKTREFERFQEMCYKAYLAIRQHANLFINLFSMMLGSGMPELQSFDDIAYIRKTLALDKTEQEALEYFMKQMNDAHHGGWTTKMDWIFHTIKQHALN
T2 sequence (P27986 whole entry partner, species assumed): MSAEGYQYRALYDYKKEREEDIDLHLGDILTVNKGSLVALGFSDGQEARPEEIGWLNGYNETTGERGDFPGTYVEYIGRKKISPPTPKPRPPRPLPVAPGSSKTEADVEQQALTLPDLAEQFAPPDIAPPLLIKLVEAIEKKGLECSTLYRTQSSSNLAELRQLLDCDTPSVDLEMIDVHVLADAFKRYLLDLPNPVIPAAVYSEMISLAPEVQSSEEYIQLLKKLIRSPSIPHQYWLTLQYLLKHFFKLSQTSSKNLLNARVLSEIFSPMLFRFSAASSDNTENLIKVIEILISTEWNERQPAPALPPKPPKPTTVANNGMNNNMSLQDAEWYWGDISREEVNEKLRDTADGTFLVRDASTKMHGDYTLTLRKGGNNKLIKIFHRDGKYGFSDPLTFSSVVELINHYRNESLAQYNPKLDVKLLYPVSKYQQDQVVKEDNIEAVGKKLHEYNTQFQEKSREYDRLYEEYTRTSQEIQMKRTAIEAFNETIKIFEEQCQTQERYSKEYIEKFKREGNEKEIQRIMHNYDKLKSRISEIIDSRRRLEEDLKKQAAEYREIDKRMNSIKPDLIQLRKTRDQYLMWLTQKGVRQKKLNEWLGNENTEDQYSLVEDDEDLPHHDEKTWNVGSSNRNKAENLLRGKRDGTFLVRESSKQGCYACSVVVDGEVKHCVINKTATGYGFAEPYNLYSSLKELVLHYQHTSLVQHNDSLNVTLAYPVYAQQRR
Nature of the experiment: In vitro PI3 kinase enzyme assay (alpha), ATP loss, bioluminescence.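 Further: purified p110α/p85 heterodimer acting on PtdIns(4,5)P2 at room temperature, remaining ATP read by luminescence, inhibition scaled between compound-free wells with and without enzyme.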 The class given is biochemical. To be noted: read-out: PI3Kα ATP loss IC50.

T1 sequence (P42338 whole entry): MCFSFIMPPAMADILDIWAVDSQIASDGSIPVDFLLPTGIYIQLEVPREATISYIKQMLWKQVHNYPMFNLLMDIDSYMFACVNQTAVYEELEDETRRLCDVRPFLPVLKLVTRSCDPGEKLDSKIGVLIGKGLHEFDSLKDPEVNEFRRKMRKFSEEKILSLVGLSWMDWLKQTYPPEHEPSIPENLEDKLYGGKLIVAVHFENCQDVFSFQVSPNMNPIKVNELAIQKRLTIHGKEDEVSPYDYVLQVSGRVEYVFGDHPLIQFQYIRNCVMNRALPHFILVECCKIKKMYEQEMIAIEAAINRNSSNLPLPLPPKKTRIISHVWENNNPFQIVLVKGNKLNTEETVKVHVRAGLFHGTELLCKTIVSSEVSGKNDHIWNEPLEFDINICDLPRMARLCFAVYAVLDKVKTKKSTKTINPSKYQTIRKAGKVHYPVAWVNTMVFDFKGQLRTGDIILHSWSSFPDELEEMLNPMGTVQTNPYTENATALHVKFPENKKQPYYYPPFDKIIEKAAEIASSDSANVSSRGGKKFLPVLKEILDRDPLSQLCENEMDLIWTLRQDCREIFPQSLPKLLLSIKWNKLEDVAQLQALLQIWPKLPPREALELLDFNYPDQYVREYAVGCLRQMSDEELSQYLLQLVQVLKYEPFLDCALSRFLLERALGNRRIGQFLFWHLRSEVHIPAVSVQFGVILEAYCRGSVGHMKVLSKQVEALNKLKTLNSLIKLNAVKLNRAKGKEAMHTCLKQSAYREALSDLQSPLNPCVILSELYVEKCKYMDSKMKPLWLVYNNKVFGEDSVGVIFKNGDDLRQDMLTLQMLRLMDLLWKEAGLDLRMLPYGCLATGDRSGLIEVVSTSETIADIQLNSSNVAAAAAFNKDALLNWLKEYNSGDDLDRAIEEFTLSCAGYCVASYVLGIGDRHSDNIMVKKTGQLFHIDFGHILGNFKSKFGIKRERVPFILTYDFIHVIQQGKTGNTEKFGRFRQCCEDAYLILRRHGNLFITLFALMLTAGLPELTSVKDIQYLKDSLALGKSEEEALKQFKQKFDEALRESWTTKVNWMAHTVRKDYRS
T1 sequence (P27986 whole entry partner): as the sequence (P27986 whole entry partner, species assumed) above

Consider `CC(=O)Nc1nc2ccc(-c3ccnc(OCC4CCN(C)CC4)n3)cc2s1` [Example 25, N-(6-(2-((1-methyl-4-piperidinyl)methoxy)-4-pyrimidinyl)-1,3-benzothiazol-2-yl)acetamide], for which the IC50 was determined as 26700 nM in experiment [1] and 10700 nM in experiment [2].

Take `Nc1nc2ccc(-c3cccc(NS(=O)(=O)c4ccccc4F)n3)cc2s1` [Example 72, N-(6-(2-amino-1,3-benzothiazol-6-yl)-2-pyridinyl)-2-fluorobenzenesulfonamide]: the IC50 in experiment [1] is 1600 nM; in experiment [2], 2270 nM.

Turning to `CC(=O)Nc1ccc(S(=O)(=O)Nc2nccc(-c3ccc4nc(NC(C)=O)sc4c3)n2)cc1` [Example 86, N-(4-((4-(2-(acetylamino)-1,3-benzothiazol-6-yl)-2-pyrimidinyl)sulfamoyl)phenyl)acetamide], the IC50 was 10200 nM in experiment [1] and 319 nM in experiment [2].

Consider `CC(=O)Nc1nc2ccc(-c3cnc(C)c(N)c3)cc2s1` [Example 142, N-(6-(5-amino-6-methyl-3-pyridinyl)-1,3-benzothiazol-2-yl)acetamide], for which the IC50 was above 40000 nM in experiment [1] and 111 nM in experiment [2].

With `CC(=O)Nc1nc2ccc(-c3cncc(OCCN4CCOC4=O)c3)cc2s1` [Example 232, N-(6-(5-(2-(2-oxooxazolidin-3-yl)ethoxy)pyridin-3-yl)benzo[d]thiazol-2-yl)acetamide], the IC50 in experiment [1] was 7440 nM; in experiment [2] it was 837 nM.

Regarding `COc1cc(C)c(-c2ccc3nc(NC(C)=O)sc3c2)cn1` [Example 244, N-(6-(6-methoxy-4-methylpyridin-3-yl)benzo[d]thiazol-2-yl)acetamide], the IC50 in experiment [1] is 2990 nM; in experiment [2], 688 nM.

Regarding `CC(=O)Nc1nc2ccc(-c3cncc(OCCN4CCC(C)C4=O)c3)cc2s1` (stereo not drawn) [Example 253], the figures for the IC50 in experiment [1] and in experiment [2] were 45600 nM and 1540 nM, respectively.

Consider `CC(=O)Nc1nc2ccc(-c3cccc(N(C)S(=O)(=O)c4ccccc4F)n3)cc2s1` [Example 226, N-(6-(6-(2-fluoro-N-methylphenylsulfonamido)pyridin-2-yl)benzo[d]thiazol-2-yl)acetamide], for which the IC50 in experiment [1] was 576 nM; in experiment [2], 161 nM.

For `CC(=O)Nc1nc2ccc(-c3ccnc(Sc4ccccc4C(C)(C)C)n3)cc2s1` [Example 30, N-(6-(2-((2-tert-butylphenyl)sulfanyl)-4-pyrimidinyl)-1,3-benzothiazol-2-yl)acetamide], the IC50 was found to be 1420 nM in experiment [1] and 908 nM in experiment [2].

Consider `CC(C)(C)OC(=O)Nc1nc2ccc(-c3nnc(N(Cc4ccccc4)S(C)(=O)=O)o3)cc2s1` [Example 170, tert-Butyl 6-(5-(N-benzylmethan-9-ylsulfonamido)-1,3,4-oxadiazol-2-yl)benzo[d]thiazol-2-ylcarbamate], for which the concentration for half-maximal inhibition (IC50) in experiment [1] stood at 4760 nM; in experiment [2], 3910 nM.

As to `O=C(Nc1nc2ccc(-c3ccnc(OCc4ccccc4)n3)cc2s1)c1ccccc1` [Example 58, N-(6-(2-(benzyloxy)-4-pyrimidinyl)-1,3-benzothiazol-2-yl)benzamide], the IC50 was 3930 nM in experiment [1] and above 40000 nM in experiment [2].

As for `CC(=O)Nc1nc2ccc(-c3cncc(OCCN4CCCC4=O)c3)cc2s1` [Example 229, N-(6-(5-(2-(2-oxopyrrolidin-1-yl)ethoxy)pyridin-3-yl)benzo[d]thiazol-2-yl)acetamide], the IC50 in experiment [1] turned out to be 15000 nM; in experiment [2], 1080 nM.

With `CC(=O)Nc1nc2ccc(-c3ccnc(Sc4ccc(Br)cc4)n3)cc2s1` [Example 139, N-(6-(2-((4-bromophenyl)sulfanyl)-4-pyrimidinyl)-1,3-benzothiazol-2-yl)acetamide], the IC50 in experiment [1] was 1050 nM; in experiment [2] it was 80.7 nM.

As for `CC(=O)Nc1nc2ccc(-c3ccnc(OCCO)n3)cc2s1` [Example 104, N-(6-(2-(2-hydroxyethoxy)-4-pyrimidinyl)-1,3-benzothiazol-2-yl)acetamide], the IC50 is above 40000 nM in experiment [1] and 540 nM in experiment [2].

For the compound `COc1ccc(S(=O)(=O)Nc2nccc(-c3ccc4nc(NC(C)=O)sc4c3)n2)cc1OC` [Example 87, N-(6-(2-(((3,4-dimethoxyphenyl)sulfonyl)amino)-4-pyrimidinyl)-1,3-benzothiazol-2-yl)acetamide], the IC50 was determined as 7190 nM in experiment [1] and 153 nM in experiment [2].

For the compound `CC(=O)Nc1nc2ccc(-c3cnc(OCCCN(C)C)c(NC(C)C)c3)cc2s1` [Example 153, N-(6-(6-(3-(dimethylamino)propoxy)-5-((1-methylethyl)amino)-3-pyridinyl)-1,3-benzothiazol-2-yl)acetamide], the half-inhibitory concentration (IC50) in experiment [1] came to 1840 nM; in experiment [2], 284 nM.

`CC(=O)Nc1nc2ccc(-c3ccnc(N(C)S(=O)(=O)c4ccc(F)cc4)n3)cc2s1` [Example 203, N-(6-(2-(4-fluoro-N-methylphenylsulfonamido)pyrimidin-4-yl)benzo[d]thiazol-2-yl)acetamide]: the IC50 in experiment [1] was determined as 930 nM; in experiment [2] it was 324 nM.

As to `CC(=O)c1cncc(-c2ccc3ncsc3c2)c1` [Example 336, 1-(5-(1,3-benzothiazol-6-yl)-3-pyridinyl)ethanone], the IC50 turned out to be 13300 nM in experiment [1] and 2550 nM in experiment [2].

Turning to `CC(C)(O)C(=O)Nc1nc2ccc(-c3ccnc(OCc4ccccc4)n3)cc2s1` [Example 55, N-(6-(2-(benzyloxy)-4-pyrimidinyl)-1,3-benzothiazol-2-yl)-2-hydroxy-2-methylpropanamide], the IC50 in experiment [1] turned out to be 7750 nM; in experiment [2], 26700 nM.

`CC(=O)Nc1nc2ccc(-c3ccnc(N(C)S(=O)(=O)c4cn(C)cn4)n3)cc2s1` [Example 211, N-(6-(2-(N,1-dimethyl-1H-imidazole-4-sulfonamido)pyrimidin-4-yl)benzo[d]thiazol-2-yl)acetamide]: the IC50 in experiment [1] was determined as 3930 nM; in experiment [2] it was 929 nM.

With `CC(=O)Nc1nc2ccc(-c3cnc(Cl)c(OC(C)C#N)c3)cc2s1` (stereo not drawn) [Example 290, N-(6-(6-chloro-5-(1-cyanoethoxy)pyridin-3-yl)benzo[d]thiazol-2-yl)acetamide], the IC50 in experiment [1] was 747 nM; in experiment [2], 111 nM.

`COc1ccc(OC)c(Sc2nccc(-c3ccc4nc(NC(C)=O)sc4c3)n2)c1` [Example 158, N-(6-(2-((2,5-dimethoxyphenyl)sulfanyl)-4-pyrimidinyl)-1,3-benzothiazol-2-yl)acetamide]: the results for the IC50 in experiment [1] and in experiment [2] were 426 nM and 831 nM, respectively.

With `COc1ccc(-c2cccc3nc(NC(C)=O)sc23)cc1` [Example 95, N-(7-(4-Methoxyphenyl)benzo[d]thiazol-2-yl)acetamide], the IC50 in experiment [1] was above 40000 nM; in experiment [2] it was 6540 nM.

For `CC(=O)Nc1nc2ccc(-c3cncc(OCCN4CCC(F)C4=O)c3)cc2s1` (stereo not drawn) [Example 255], the results for the IC50 in experiment [1] and in experiment [2] were above 40000 nM and 794 nM, respectively.

Turning to `CC(=O)Nc1nc2ccc(-c3cncc(OC(C)CN4CCOCC4)c3)cc2s1` (stereo not drawn) [Example 231, N-(6-(5-(1-morpholinopropan-2-yloxy)pyridin-3-yl)benzo[d]thiazol-2-yl)acetamide], the results for the IC50 in experiment [1] and in experiment [2] were 15700 nM and 637 nM, respectively.

Consider `COCCCNc1nccc(-c2ccc3nc(NC(C)=O)sc3c2)n1` [Example 46, N-(6-(2-((3-methoxypropyl)amino)-4-pyrimidinyl)-1,3-benzothiazol-2-yl)acetamide], for which the values for the IC50 in experiment [1] and in experiment [2] were 20400 nM and 1210 nM, respectively.

With `COCCOCOc1cc(-c2ccc3nc(NC(C)=O)sc3c2)cnc1Cl` [Example 292, N-(6-(6-chloro-5-((2-methoxyethoxy)methoxy)pyridin-3-yl)benzo[d]thiazol-2-yl)acetamide], the results for the IC50 in experiment [1] and in experiment [2] were 2080 nM and 164 nM, respectively.

In the case of `CC(=O)Nc1nc2ccc(-c3cncc(OCCN4CCOCC4)c3)cc2s1` [Example 230, N-(6-(5-(2-morpholinoethoxy)pyridin-3-yl)benzo[d]thiazol-2-yl)acetamide], the IC50 in experiment [1] was 19300 nM; in experiment [2], 2790 nM.

Regarding `CC(=O)Nc1nc2ccc(-c3ccnc(OCCc4cccnc4)n3)cc2s1` [Example 18, N-(6-(2-(2-(3-pyridinyl)ethoxy)-4-pyrimidinyl)-1,3-benzothiazol-2-yl)acetamide], the IC50 in experiment [1] was 32200 nM; in experiment [2], 1100 nM.

`COCCOCOc1cc(-c2ccc3nc(NC(C)=O)sc3c2)cnc1C(F)(F)F` [Example 293, N-(6-(5-((2-methoxyethoxy)methoxy)-6-(trifluoromethyl)pyridin-3-yl)benzo[d]thiazol-2-yl)acetamide]: the IC50 in experiment [1] was above 40000 nM; in experiment [2], 211 nM.

In the case of `CN(C)c1cc(-c2ccc3nc(NC(=O)NCCN4CCOCC4)sc3c2)cnc1Cl` [Example 273, 1-(6-(6-chloro-5-(dimethylamino)pyridin-3-yl)benzo[d]thiazol-2-yl)-3-(2-morpholinoethyl)urea], the IC50 turned out to be 2070 nM in experiment [1] and 115 nM in experiment [2].

Take `CC(=O)Nc1nc2ccc(-c3ccnc(NN4CCCCC4)n3)cc2s1` [Example 265, N-(6-(2-(piperidin-1-ylamino)pyrimidin-4-yl)benzo[d]thiazol-2-yl)acetamide]: the IC50 was 40800 nM in experiment [1] and 2600 nM in experiment [2].

`CN(C)CC(=O)Nc1nc2ccc(-c3ccnc(OCc4ccccc4)n3)cc2s1` [Example 59, N-(6-(2-(benzyloxy)-4-pyrimidinyl)-1,3-benzothiazol-2-yl)-N~2~,N~2~-dimethylglycinamide]: the IC50 amounted to 9800 nM in experiment [1] and 11300 nM in experiment [2].

Turning to `CC(=O)Nc1nc2ccc(-c3cncc(OCCN4CCC(F)(F)C4=O)c3)cc2s1` [Example 254], the IC50 came out at 24100 nM in experiment [1] and 1180 nM in experiment [2].

Consider `CC(=O)Nc1nc2ccc(-c3ccnc(Sc4cccc(Cl)c4)n3)cc2s1` [Example 140, N-(6-(2-((3-chlorophenyl)sulfanyl)-4-pyrimidinyl)-1,3-benzothiazol-2-yl)acetamide], for which the IC50 in experiment [1] worked out at 134 nM; in experiment [2], 83.6 nM.

Take `CC(=O)Nc1nc2ccc(-c3ccnc(OCCN(C)C)n3)cc2s1` [Example 9]: the IC50 in experiment [1] was above 40000 nM; in experiment [2] it was 6070 nM.

What is called IC50 is the point on the concentration scale where inhibition reaches its midpoint.
